Assay results taken from patent publication US20010046687A1, “Method for the enhancement of luminescence intensity from a reaction between adenosine triphosphate (ATP) and a luciferase/luciferin reactant system” (priority 2000, published 2001).

Molecular target: T1, luciferase (Photinus pyralis, UniProt P08659)
T1 construct: purchased Analytical Luminescent Laboratories (ALL), Sparks, Maryland #2005
Assay: luminescence from the reaction between ATP and a luciferase/luciferin reactant system loaded on reagent discs
Assay type: biochemical
Source text: FIG. 11 is a plot of relative luminescent intensity for reactant mixtures prepared with (♦) and without (▪) trehalose in the reactant loading solution for use with the device of FIG. 1.
FIG. 12 is a plot of luminescent intensity as a function of the concentration of trehalose in the reactant solution for use with the device of FIG. 1.
As discussed above, the inherent chemical and mechanical stability of the polymeric material is ideally suited for use as a medium on which to load the chemiluminescent reagents for the practice of the present invention. A number of commercial enterprises market luciferin-luciferase reagent kits for use in chemiluminescent reaction assays. One that the inventors have found to be particularly well suited for the practice of the present invention is the “Firelight®” luciferin-luciferase reagent kit provided by Analytical Luminescent Laboratories (ALL) of Sparks, Maryland. […] This provides for a greater intensity of luminescence, and faster reaction kinetics.
In the preparation of the reagent discs 48, the reactant concentrate is loaded, preferably drop-wise, onto the Merocel® CF50, obtained in pre-sterilized sheets. The coated sheets are then dried at ambient temperatures under a vacuum, and the reagent discs are cut from the sheets in an appropriate size and shape. Alternatively, discs may be cut first and then loaded with appropriate reagent solution. When loaded in such fashion with the reagent mixture, reagent discs, approximately 6 mm in diameter and approximately 1.5 mm in height, carry approximately 0.5 mg of the dried reactant mixture.
It is recognized in the prior art that trehalose will stabilize delicate materials while they are freeze-dried. Freeze drying as a technique was devised as being the only way certain sensitive materials can be handled. Ordinary drying at ambient or elevated temperature and at atmospheric or reduced pressure causes irreversible degradation of very many such substances, so much so that it has been accepted that sensitive proteins must not be dried at ambient temperature. […]

T1 sequence (P08659 whole entry): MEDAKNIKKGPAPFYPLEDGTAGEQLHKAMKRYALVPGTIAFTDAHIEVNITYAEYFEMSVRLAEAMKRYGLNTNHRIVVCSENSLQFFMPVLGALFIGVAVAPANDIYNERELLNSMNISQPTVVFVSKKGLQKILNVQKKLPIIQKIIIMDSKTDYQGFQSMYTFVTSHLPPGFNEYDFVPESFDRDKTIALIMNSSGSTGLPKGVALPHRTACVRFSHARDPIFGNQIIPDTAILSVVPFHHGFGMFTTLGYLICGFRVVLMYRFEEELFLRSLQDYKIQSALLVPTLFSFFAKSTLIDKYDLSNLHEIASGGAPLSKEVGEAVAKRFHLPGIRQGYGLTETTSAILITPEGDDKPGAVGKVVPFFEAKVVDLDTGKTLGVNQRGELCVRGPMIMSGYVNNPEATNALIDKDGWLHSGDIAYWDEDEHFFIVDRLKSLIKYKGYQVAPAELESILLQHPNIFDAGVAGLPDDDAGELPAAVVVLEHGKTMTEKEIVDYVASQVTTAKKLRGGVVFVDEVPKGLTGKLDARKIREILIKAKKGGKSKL

## OC[C@H]1O[C@H](O[C@H]2O[C@H](CO)[C@@H](O)[C@H](O)[C@H]2O)[C@H](O)[C@@H](O)[C@@H]1O [trehalose, a-D-glucopyranosyl-a-D-glucopyranoside]
6 mm×1.5 mm reagent disc, total loading approximately 4 mg including trehalose, FIG. 12
  observed luminescent intensities versus the same loading of reagents without the trehalose: more than twice
Reactant mixtures prepared with and without trehalose in the loading solution, FIG. 11
  stabilization effect on the chemiluminescent reactant mixture: measurable stabilization effect
Trehalose added to the loading solution at levels approaching its saturation solubility
  biochemical activity of the luciferase component of the reagent mixture: up to a doubling, or more
